Converted amounts (≈) assume the structure as drawn. “Also recorded” adds a separate entry of the source. Like-named read-outs stand apart in the source and are kept apart here.
Legend:
[1] = system: E. faecalis ATCC-29212; assay: MIC testing (broth microdilution, EUCAST); format: cell-based; settings: Enterococcus faecalis, ATCC29212, E. faecalis ATCC-29212
Experimental: (§1) Minimal inhibitory concentration (MIC) of the compounds in the present invention was determined using broth microdilution performed according to EUCAST guidelines (ISO20776-1:2019). S. aureus ATCC29213 and E. faecalis ATCC29212 served as quality control strains.

[2] = system: E. faecium DSM-20477; assay: MIC testing (broth microdilution, EUCAST); format: cell-based; settings: Enterococcus faecium, DSM20477, E. faecium DSM-20477
Experimental: as §1

[3] = system: S. aureus Newman; assay: MIC testing (broth microdilution, EUCAST); format: cell-based
Experimental: as §1

[4] = system: S. aureus N315 (methicillin-resistant, MRSA); assay: MIC testing (broth microdilution, EUCAST); format: cell-based; settings: Staphylococcus aureus, MRSA
Experimental: as §1

[5] = system: E. faecium DSM-17050 (vancomycin-resistant, VRE); assay: MIC testing (broth microdilution, EUCAST); format: cell-based; settings: Enterococcus faecium
Experimental: as §1

[6] = system: S. epidermidis DSM-28765; assay: MIC testing (broth microdilution, EUCAST); format: cell-based; settings: Staphylococcus epidermidis, DSM28765, S. epidermidis DSM-28765; read-out: MIC S. epiderm.
Experimental: as §1

[7] = In vivo PK after peroral administration (soy oil); parameters: species or system mouse; settings: for half-life / AUC(0-t) / Cmax / Tmax: mouse, plasma; for half-life: read-out: t1/2z (converted)
Experimental: Peroral administration was compared between dehalogenil and ChB1-Epo2. […] Clearance was slow (t1/2z 5.5 and 10 h for 10 and 50 mg/kg, respectively) but considerably higher than for ChB1-Epo2.

[8] = Inhibition of CYP3A4; format: in vitro ADME; settings: cyp3a4
Experimental: (§2) Complementing the toxicity profiling, ADME properties of the lead dehalogenil were determined. This had not been possible for the first generation frontrunner ChB1-Epo2 or the natural product ChA because of their poor limit of detection. […] Across species (mouse, rat, human), metabolic stability is high while plasma stability is moderate. Besides, no hemolysis and no inhibition of the metabolically important enzyme CYP3A4 was observed by both dehalogenil and ChA. Plasma protein binding (PPB) is >99.4% in all species.

[9] = system: CYP3A4; assay: Inhibition of CYP3A4; format: in vitro ADME
Experimental: as §2

[10] = Plasma protein binding (PPB); format: in vitro ADME, rat
Experimental: as §2

[11] = Aqueous solubility; format: physicochemical; settings: for solubility thermodynamic: read-out: semi thermodynamic solubility
Experimental: as §2

[12] = system: S. aureus USA300LAC; assay: S. aureus blood infection (sepsis) model; format: in vivo, mouse (CD-1); settings: for survival: BID, until 3 days post infection
Experimental: Dehalogenil was further tested in a Staphylococcus blood infection (sepsis) model, alongside linezolid as reference compound. Mice were infected using S. aureus USA300LAC (10^8 CFU/animal) and subsequently treated with a daily total of 5, 10 or 25 mg/kg SC dehalogenil, split into two doses (8 h interval, BID regimen) until 3 days post infection.
Mice were infected intravenously using S. aureus USA300LAC (10^8 CFU/mice). Compounds were administered twice daily starting day 0 until day 3, with the daily total dose indicated. Curves were compared via Mantel-Cox test (Prism), with ***: p<0.001 and **: p<0.01.

[13] = mice, oral, soy oil, vs ChB1-Epo2
[14] = po, mice, 10 mg/kg, mean (n = 3)
[15] = po, mice, 50 mg/kg, mean (n = 3)

For `CC1=CC(C)C2C(C=CC3C(C)C=CC=CC(C)OC(=O)C(C)C(=O)CC(=O)C32)C1` (stereo not shown) [dehalogenil], the MIC [1] was 0.1 µg/mL (≈ 0.244 µM), the MIC [2] was 0.025 µg/mL (≈ 0.0609 µM) and the “MIC S. aureus” value [3] was 0.05 µg/mL (≈ 0.122 µM). For the same molecule, the MIC [4] was 0.05 µg/mL (≈ 0.122 µM), the MIC [5] was 0.1 µg/mL (≈ 0.244 µM) and the MIC [6] was 0.2 µg/mL (≈ 0.487 µM). The tz ([7]; mice, 10 mg/kg, p.o., mean (n = 3)) was 24 h, the tz ([7]; mice, 50 mg/kg, p.o., mean (n = 3)) was 24 h and the “AUC0-tz compared to ChB1-Epo2” value [7, 13] was “ca. six-fold higher”. The “cmax compared to ChB1-Epo2” value [7, 13] was “ca. four-fold higher”, the Clearance ([7]; mice, po, soy oil) was “slow” and the half-life ([7]; po, 10 mg/kg, mice, 10 mg/kg po, soy oil) was 5.5 h. The half-life ([7]; po, 10 mg/kg, mice, 10 mg/kg, p.o., mean (n = 3)) was 5.5 h, the half-life ([7]; po, 50 mg/kg, mice, 50 mg/kg po, soy oil) was 10 h and the half-life ([7]; po, 50 mg/kg, mice, 50 mg/kg, p.o., mean (n = 3)) was 10.2 h. It also gave an AUC(0-t) [7, 14] of 3020 ng·h/mL, a Cmax [7, 14] of 261 ng/mL and a Tmax [7, 14] of 3 h. For the same molecule, the AUC(0-t) [7, 15] was 8360 ng·h/mL, the Cmax [7, 15] was 579 ng/mL and the Tmax [7, 15] was 3 h. The higher plasma levels ([7]; rodents, comparator chlorotonil B1-Epo2 (implied)) was 3 fold, the IC50 [8] was 16.4 µM and the “inhibition of CYP3A4” value [9] was “no inhibition”. The fraction unbound ([10]; plasma, all species: rat) was under 0.006, the plasma protein binding ([10]; rat) was over 99.4% and the solubility thermodynamic ([11]; pH 5.0) was 34.9 ± 2.7 µM (≈ 14.3 µg/mL). For the same molecule, the solubility thermodynamic ([11]; pH 7.4) was 41.4 ± 10.3 µM (≈ 17 µg/mL), the “Solubility increase compared to the natural product ChA” value ([11]; pH 7.4, vs ChA) was “more than 500 fold” and the solubility thermodynamic ([11]; pH 9.0) was 16.5 ± 8.7 µM (≈ 6.77 µg/mL). The “Solubility compared to ChB1-Epo2” value ([11]; vs ChB1-Epo2, aqueous) was “more than doubled; also recorded: doubled aqueous solubility”, the survival ([12]; 10 mg/kg daily total SC) was 80% and the survival ([12]; 25 mg/kg daily total SC) was 90%. The “survival rates compared to linezolid” value ([12]; 10 and 25 mg/kg SC vs linezolid 60 mg/kg) was “increased survival rates comparable to a higher dose of linezolid”.
